Results from patent US20250145639A1, “MUTANT KRAS MODULATORS AND USES THEREOF” (NEWAVE PHARMACEUTICAL INC., priority 2021, published 2025).
pIC50: −log10 of the molar value.

Assays:
[1] = target: T1, HIS-KRAS (G12C, aa 2-185) (Homo sapiens, UniProt P01116, G12C); assay: KRas G12C binding assay (TR-FRET, SOS1-mediated BODIPY FL GTP nucleotide exchange); details: GDP-loaded HIS-KRAS (G12C) 3 nM, 1 hour pre-incubation with compound, 4 hours with SOS1 ExD and BODIPY FL GTP at 25° C
T1 construct: HIS-KRAS (G12C, aa 2-185, Sino biological); purchased Sino biological
T1 sequence (P01116 2-185 isoform P01116-2 G12C): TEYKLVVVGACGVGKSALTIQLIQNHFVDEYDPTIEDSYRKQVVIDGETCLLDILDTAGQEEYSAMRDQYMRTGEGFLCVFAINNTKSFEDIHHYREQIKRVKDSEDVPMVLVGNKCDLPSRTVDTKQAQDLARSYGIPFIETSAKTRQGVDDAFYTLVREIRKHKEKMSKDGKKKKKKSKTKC
Description: Biological Example 1: KRas G12C Binding Assay
(§1) HIS-KRAS (G12C, aa 2-185, Sino biological) was diluted to 5 uM in EDTA buffer (20 mM HEPES, pH 7.4, 50 mM NaCl, 10 mM EDTA, 0.01% (v/v) Tween-20) and incubated for 30 min at 25° C. The EDTA pretreated HIS-KRAS (G12C) was diluted to 12 nM in assay buffer (25 mM HEPES, pH 7.4, 120 mM NaCl, 5 mM MgCl 2, 1 mM DTT, 0.01% (v/v) Tween 20, 0.1% (w/v) BSA) containing 120 nM GDP (Sigma) and MAb Anti 6HIS—Tb cryptate Gold (Cisbio) and incubated for 1 hour at 25° C. to prepare GDP-loaded HIS-KRAS (G12C). The GDP-loaded HIS-KRAS (G12C) was pre-incubation with diluted compounds in a 384-well plate (Greiner) for 1 hour, then purified SOS1 ExD (Flag tag, aa 564-1049) and BODIPY™ FL GTP (Invitrogen) were added to the assay wells (Final concentration: 3 nM HIS-KRAS (G12C), 2 uM SOS1 ExD, 80 nM BODIPY™ FL GTP, 21 ng/mL MAb Anti 6HIS—Tb cryptate Gold) and incubated for 4 hours at 25° C. TR-FRET signals were then read on Tecan Spark multimode microplate reader. The parameters were F486: Excitation 340 (35) nm, Emission 486 (10) nm, Lag time 100 μs, Integration time 200 μs; F515: Excitation 340 (35) nm, Emission 515 (10) nm, Lag time 100 μs, Integration time 200 μs. TR-FRET ratios for each individual wells were calculated by equation: TR-FRET ratio=(Signal F515/Signal F486)*10000. Then the data were analyzed using a 4-parameter logistic model to calculate IC50 values. The following table lists the IC50 values of certain compounds of the invention.

[2] = target: HIS-KRAS (G12V) (Homo sapiens, UniProt P01116, G12V); assay: KRas G12V binding assay (TR-FRET, SOS1-mediated BODIPY FL GTP nucleotide exchange); details: GDP-loaded HIS-KRAS (G12V) 3 nM, 1 hour pre-incubation with compound, 4 hours with SOS1 ExD and BODIPY FL GTP at 25° C
HIS-KRAS (G12V), sequence (P01116 1-188 isoform P01116-2 G12V): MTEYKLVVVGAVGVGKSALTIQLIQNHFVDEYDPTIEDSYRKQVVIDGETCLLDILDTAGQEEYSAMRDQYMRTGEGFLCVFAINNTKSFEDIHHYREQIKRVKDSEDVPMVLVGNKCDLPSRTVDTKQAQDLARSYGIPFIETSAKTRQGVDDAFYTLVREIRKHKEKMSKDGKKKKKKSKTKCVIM
Description: Biological Example 3: KRas G12V Binding Assay
as §1, with “(G12V)” for “(G12C, aa 2-185, Sino biological)”, “(G12V)” for “(G12C)”, “(G12V).” for “(G12C).”, “(G12V),” for “(G12C),”

[3] = target: T2, GDP-loaded, histidine-tagged, truncated (1-169) KRAS G12C (Homo sapiens, UniProt P01116, G12C); assay: KRas G12C in vitro covalent MS-based assay; type: binding; details: KRAS protein 2 uM, denaturing SEC-MS intact mass
T2 construct: histidine-tagged, truncated (1-169) KRAS proteins; His
T2 sequence (P01116 1-169 isoform P01116-2 G12C): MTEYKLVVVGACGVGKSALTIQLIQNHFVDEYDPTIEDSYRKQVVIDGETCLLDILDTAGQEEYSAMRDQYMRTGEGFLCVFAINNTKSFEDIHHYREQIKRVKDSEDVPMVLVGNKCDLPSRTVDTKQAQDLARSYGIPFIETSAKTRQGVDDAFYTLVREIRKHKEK
Description: Biological Example 2: KRas G12C In Vitro Covalent MS-Based Assay
GDP-loaded, histidine-tagged, truncated (1-169) KRAS proteins (G12C, WT, G13D, as indicated) at 2 uM final concentration were incubated with the test compounds at the doses and time points indicated in a buffer containing 20 mmol/L HEPES pH 7.5, 150 mmol/L NaCl, 1 mmol/L MgCl 2, and 1 mmol/L DTT. Reactions were quenched by adding formic acid to 0.2%. Samples were buffer exchanged and analyzed by denaturing SEC-MS (Orbitrap Eclipse), Mobile phase: 30% ACN, 0.1% formic acid, 0.02% TFA. Raw data were analyzed by charge state deconvolution with BioPharma Finder 4.1 Intact Mass, ReSpect and Sliding Window algorithms. The masses were calculated via software for KRAS_G12C theoretical sequence and experimental compounds.

SMILES	pIC50 [1]	pIC50 [2]	Binding Model [3]
C#Cc1cccc2cc(O)cc(-c3ncc4c(N5CC6CCC(C5)N6C(=O)C=C)nc(OC[C@@]56CCCN5C[C@H](F)C6)nc4c3F)c12 [Example 1, 1-[3-(2-{[(2R,7aS)-2-fluoro-hexahydropyrrolizin-7a-yl]methoxy}-7-(8-ethynyl-3-hydroxynaphthalen-1-yl)-8-fluoropyrido[4,3-d]pyrimidin-4-yl)-3,8-diazabicyclo[3.2.1]octan-8-yl]prop-2-en-1-one]	7.98	8.36	
C#Cc1c(F)ccc2cc(O)cc(-c3ncc4c(N(C)C[C@@H]5CCCN5C(=O)C=C)nc(OC[C@@]56CCCN5C[C@H](F)C6)nc4c3F)c12 [Example 2, 1-[(2S)-2-{[(2-{[(2R,7aS)-2-fluoro-hexahydropyrrolizin-7a-yl]methoxy}-7-(8-ethynyl-7-fluoro-3-hydroxynaphthalen-1-yl)-8-fluoropyrido[4,3-d]pyrimidin-4-yl)(methyl)amino]methyl}pyrrolidin-1-yl]prop-2-en-1-one]	9.39	9.27	Covalent binding
C#Cc1c(F)ccc2cccc(-c3ncc4c(N5C[C@H]6CC[C@@H](C5)N6C(=O)C=C)nc(OCC56CCCN5CCC6)nc4c3F)c12 [Example 3, 1-((1R,5S)-3-(7-(8-ethynyl-7-fluoronaphthalen-1-yl)-8-fluoro-2-((tetrahydro-1H-pyrrolizin-7a(5H)-yl)methoxy)pyrido[4,3-d]pyrimidin-4-yl)-3,8-diazabicyclo[3.2.1]octan-8-yl)prop-2-en-1-one]	8.50	7.41	
C#Cc1c(F)ccc2cc(O)cc(-c3ncc4c(N5C[C@H]6CC[C@@H](C5)N6C(=O)C=C)nc(N5CC(N(C)C)C5)nc4c3F)c12 [Example 4, 1-((1R,5S)-3-(2-(3-(dimethylamino)azetidin-1-yl)-7-(8-ethynyl-7-fluoro-3-hydroxynaphthalen-1-yl)-8-fluoropyrido[4,3-d]pyrimidin-4-yl)-3,8-diazabicyclo[3.2.1]octan-8-yl)prop-2-en-1-one]	8.48	7.02	
C#Cc1c(F)ccc2cc(O)cc(-c3ncc4c(N5C[C@H]6CC[C@@H](C5)N6C(=O)C=C)nc(OCC56CCCN5CCC6)nc4c3F)c12 [Example 5, 1-((1R,5S)-3-(7-(8-ethynyl-7-fluoro-3-hydroxynaphthalen-1-yl)-8-fluoro-2-((tetrahydro-1H-pyrrolizin-7a(5H)-yl)methoxy)pyrido[4,3-d]pyrimidin-4-yl)-3,8-diazabicyclo[3.2.1]octan-8-yl)prop-2-en-1-one]	9.43	9.72	Covalent binding
C#Cc1c(F)ccc2cc(O)cc(-c3ncc4c(N5C[C@H]6CC[C@@H](C5)N6C(=O)C=C)nc(OC[C@@H]5CCCN5C)nc4c3F)c12 [Example 6, 1-((1R,5S)-3-(7-(8-ethynyl-7-fluoro-3-hydroxynaphthalen-1-yl)-8-fluoro-2-(((S)-1-methylpyrrolidin-2-yl)methoxy)pyrido[4,3-d]pyrimidin-4-yl)-3,8-diazabicyclo[3.2.1]octan-8-yl)prop-2-en-1-one]	9.44	9.42	
C#Cc1c(F)ccc2cc(O)cc(-c3ncc4c(N5C[C@H]6CC[C@@H](C5)N6C(=O)C=C)nc(OC[C@@H]5CCCCN5C)nc4c3F)c12 [Example 7, 1-((1R,5S)-3-(7-(8-ethynyl-7-fluoro-3-hydroxynaphthalen-1-yl)-8-fluoro-2-(((S)-1-methylpiperidin-2-yl)methoxy)pyrido[4,3-d]pyrimidin-4-yl)-3,8-diazabicyclo[3.2.1]octan-8-yl)prop-2-en-1-one]	9.39	8.23	
C#Cc1c(F)ccc2cc(O)cc(-c3ncc4c(NCC5(N(C)C(=O)C=C)CCC5)nc(OCC56CCCN5CCC6)nc4c3F)c12 [Example 10, N-(1-(((7-(8-ethynyl-7-fluoro-3-hydroxynaphthalen-1-yl)-8-fluoro-2-((tetrahydro-1H-pyrrolizin-7a(5H)-yl)methoxy)pyrido[4,3-d]pyrimidin-4-yl)amino)methyl)cyclobutyl)-N-methylacrylamide]	8.57	8.29	
C#Cc1c(F)ccc2cc(O)cc(-c3ncc4c(NCC5(N(C)C(=O)C=C)CCCC5)nc(OCC56CCCN5CCC6)nc4c3F)c12 [Example 11, N-(1-(((7-(8-ethynyl-7-fluoro-3-hydroxynaphthalen-1-yl)-8-fluoro-2-((tetrahydro-1H-pyrrolizin-7a(5H)-yl)methoxy)pyrido[4,3-d]pyrimidin-4-yl)amino)methyl)cyclopentyl)-N-methylacrylamide]	8.80	8.46	
C#Cc1c(F)ccc2cc(O)cc(-c3ncc4c(N5C[C@H]6CC[C@@H](C5)N6C(=O)C=C)nc(OC[C@]5(C)CCCN5C)nc4c3F)c12 [Example 12, 1-((1R,5S)-3-(2-(((S)-1,2-dimethylpyrrolidin-2-yl)methoxy)-7-(8-ethynyl-7-fluoro-3-hydroxynaphthalen-1-yl)-8-fluoropyrido[4,3-d]pyrimidin-4-yl)-3,8-diazabicyclo[3.2.1]octan-8-yl)prop-2-en-1-one]	8.82	7.30	
C#Cc1c(F)ccc2cc(O)cc(-c3ncc4c(N5C[C@H]6CC[C@@H](C5)N6C(=O)C=C)nc(OC[C@]5(C)C[C@@H](F)CN5C)nc4c3F)c12 [Example 13, 1-((1R,5S)-3-(7-(8-ethynyl-7-fluoro-3-hydroxynaphthalen-1-yl)-8-fluoro-2-(((2S,4R)-4-fluoro-1,2-dimethylpyrrolidin-2-yl)methoxy)pyrido[4,3-d]pyrimidin-4-yl)-3,8-diazabicyclo[3.2.1]octan-8-yl)prop-2-en-1-one]	9.02	7.86	
C#Cc1c(F)ccc2cc(O)cc(-c3ncc4c(N5C[C@H]6CC[C@@H](C5)N6C(=O)C=C)nc(OC[C@@]5(C)C[C@@H](F)CN5C)nc4c3F)c12 [Example 14, 1-((1R,5S)-3-(7-(8-ethynyl-7-fluoro-3-hydroxynaphthalen-1-yl)-8-fluoro-2-(((2R,4R)-4-fluoro-1,2-dimethylpyrrolidin-2-yl)methoxy)pyrido[4,3-d]pyrimidin-4-yl)-3,8-diazabicyclo[3.2.1]octan-8-yl)prop-2-en-1-one]	9.00		
